Laboratory results from patent US9738610B2, “Indazole derivatives and uses thereof” (Whitehead Institute for Biomedical Research, priority 2012, dated 2017).

Columns and labels:
[1] = target: T1, yeast (Saccharomyces cerevisiae, UniProt P00163); assay: IC50 values and selectivity of Table 10A (target yeast, anti-target human cytochrome); format: biochemical; settings: for IC50: target is yeast; for Selectivity* (anti-target IC50)/(target IC50): target yeast, anti-target human cytochrome
T1 construct: Mitochondrial membranes were prepared from yeast; endogenous in cells; host or cells: yeast (mitochondrial membranes)
Description: All measurements were performed in triplicate.

[2] = test system: C. albicans CaCi-8; assay: microbe, parasite or virus in culture; format: cell-based, Candida albicans; settings: in the presence of fluconazole; read-out: Target Potency (μM) Mean ± S.E.M CaCi-8^a IC50
Description: This subset was re-subjected to the primary assay and was also tested concurrently in two secondary assays. Secondary assay 1 measured chemosensitization of the more resistant CaCi-8 strain. Secondary assay 2 eliminated anything with inherently antifungal activity. […] A final assay (secondary assay 3) was incorporated to discard any compound displaying toxicity to mammalian fibroblasts. […] This screening campaign is also illustrated in FIG. 3B.
Those that inhibited growth in the resistant strain were also tested for toxicity against Candida in the absence of fluconazole and for toxicity against mammalian cells using a fluorescence reporter assay. The positive control for screening in the Candida and mammalian cell assays was the Hsp90 inhibitor geldanamycin (acting in concert with fluconazole; FIG. 4). Compounds that passed these four hurdles were binned through use of a Saccharomyces assay to determine whether the mechanism of action might be through the Hsp90 pathway, the calcineurin pathway, or an uncategorized mechanism.

[3] = Plasma protein binding; settings: % bound in human plasma
[4] = Plasma stability; settings: % remaining in human plasma after a 5-hour incubation
[5] = test system: C. albicans CaCi-2; assay: Secondary single-agent (no-fluconazole) activity assay; format: cell-based, Candida albicans; settings: in the absence of fluconazole; read-out: Target Potency (μM) Mean ± S.E.M CaCi-2^b IC50
Description: Clear, flat-bottom, black, 384-well plates were obtained from Corning. […] Pen/Strep was obtained from Gibco and prepared 100× in PBS. Fluconazole was obtained from Sigma and prepared in 2 mg/ml stock solution in PBS. Alamar Blue was obtained from Biosource International (Catalog No. DAL1100). Phosphate buffered solution (PBS) without calcium and magnesium was obtained from Cellgro.
Fungal inoculum was prepared as follows: 500 μl of yeast was inoculated from cryopreserved stock into a 250-ml shaker flask containing 30 ml growth medium and shaken overnight (16 hours) at 30° C. The culture was spun down, and the broth was poured off and washed with RPMI medium. The culture was spun down again, and the broth was poured off and resuspended in RPMI medium. The OD 600 of 1 ml of fungal culture in a cuvette was read using a standard optical density reader with growth medium as a background blank. The desired volume of fungal inoculum was diluted to starting OD of the fungal inoculum of 0.00015 A600.
Pen/Strep was added to the media to a final 1% concentration. A Combi NL (Thermo) was used to dispense 20 μl/well of assay media into all wells. Geldanamycin (1.5 mM) and fluconazole (0.2 mg/ml) were mixed for the positive control. Then, 80 nl of positive control solution was dispensed into the positive control wells using Thermo Combi nL for a final concentration of 3 μM geldanamycin and 8 μg/ml fluconazole. Then, 100 nl of test compound were pinned from the compound plates into assay plates using a CyBi-Well pin tool. A further 20 μl/well of RPMI synthetic defined medium culture was dispensed into 384-well, black plates. Fungal suspension (20 μl/well) was dispensed into all wells. The plates were incubated in a humidified (90% humidity) Liconic incubator at 37° C. without agitation for 48 hours. Alamar Blue Reagent was diluted 1:40 in Ca/Mg-free PBS. To all plates, 6.4 μl/well of the diluted Alamar Blue was added to the plates to a final dilution factor of 1:200. The plates were incubated for 2 hours at room temperature. Next, RFU of wells was read on a standard plate reader as a measure of relative fungal growth.

Structure (SMILES)	IC50 [1]	Selectivity* (anti-target IC50)/(target IC50) [1]	IC50 [2]	Plasma Protein Binding [3]	Plasma Stability [4]	IC50 [5]
COC(=O)Cn1nc(-c2cc(F)ccc2C)c2ccccc21 [Compound I-131]	0.4 µM	40				
CCN(CC)CCOc1cccc(-c2nn(CC(=O)OC)c3ccccc23)c1 [Compound I-138]	> 32 µM					
COC(=O)Cn1nc(-c2cccc(OCCC3CCCCC3)c2)c2ccccc21 [Compound I-141]	0.0625 µM	12				
O=C(Cn1nc(-c2ccccc2)c2ccccc21)OC1CCC1 [Compound 49835870]			> 26 µM	> 99%	2.0%	> 26 µM
CC(C)(C)OC(=O)Cn1nc(-c2ccccc2)c2ccccc21 [Compound 49835839]			> 26 µM	> 99%	85%	> 26 µM
COC(=O)Cn1nc(-c2cccc(OCCN(C(C)C)C(C)C)c2)c2ccccc21 [Compound I-139]	1 µM	6				
COC(=O)Cn1nc(-c2ccc(C)cc2)c2ccccc21 [Compound 46856255]			11 µM	96%	4.1%	> 26 µM
O=C(O)Cn1nc(-c2ccccc2)c2ccccc21 [Compound 5309553]			> 26 µM	97%	> 99%	> 26 µM
CC(C)OC(=O)Cn1nc(-c2ccccc2)c2ccccc21 [Compound 49835820]			> 26 µM	99%	53%	> 26 µM
COC(=O)Cn1nc(-c2ccc(F)cc2F)c2ccccc21 [Compound I-70]	0.275 µM	58.2				
COC(=O)Cn1nc(-c2cccc(F)c2F)c2ccccc21 [Compound I-130]	0.25 µM	32				
Cn1cc(Cn2nc(-c3ccccc3)c3ccccc32)nn1 [Compound I-94]	40 µM	>4				
COC(=O)Cn1nc(-c2cccc(OCCN(C)C)c2)c2ccccc21 [Compound I-137]	> 32 µM					
COC(=O)Cn1nc(-c2ccc(C#N)cc2)c2ccccc21 [Compound 49835863]			20 µM	92%	< 1.0%	> 26 µM
FC(F)Cn1nc(-c2ccccc2)c2ccccc21 [Compound I-110]	> 120 µM					
c1ccc(-c2nn(Cc3ncccn3)c3ccccc23)cc1 [Compound I-123]	> 120 µM					
COC(=O)Cn1nc(-c2ccccc2)c2c(C)cccc21 [Compound I-81]	1.25 µM	8				
Cn1nnc(Cn2nc(-c3ccccc3)c3ccccc32)n1 [Compound I-90]	1.25 µM	32				
COC(=O)Cn1nc(-c2cccnc2)c2ccccc21 [Compound I-121]	15 µM					
Cc1nnc(Cn2nc(-c3ccccc3)c3ccccc32)o1 [Compound I-84]	8 µM	>32				
COC(=O)Cn1nc(-c2cc(OCCCC3CCCCC3)ccc2F)c2cccc(C)c21 [Compound I-101]	0.0015 µM	49				
COC(=O)Cn1nc(-c2ccccc2)c2cc(C(F)(F)F)ccc21 [Compound I-83]	40 µM	3				
c1ccc(-c2nn(Cc3ncco3)c3ccccc23)cc1 [Compound 49835836]			34.2 ± 7.9 µM	> 99%	97%	> 26 µM
COC(=O)Cn1nc(-c2ccccc2Cl)c2ccccc21 [Compound I-132]	0.75 µM	32				
Cn1nnnc1Cn1nc(-c2ccccc2)c2ccccc21 [Compound I-91]	> 20 µM					
COC(=O)Cn1nc(-c2ccccc2)c2ccc(C(F)(F)F)cc21 [Compound 49835849]			32.1 µM	62%	1.7%	> 26 µM

Structure (SMILES)	IC50 [1]	Selectivity* (anti-target IC50)/(target IC50) [1]	IC50 [2]	Plasma Protein Binding [3]	Plasma Stability [4]	IC50 [5]
Cn1nnc(Cn2nc(-c3cc(C(F)(F)F)ccc3F)c3ccccc32)n1 [Compound I-98]	0.063 µM	48				
CS(=O)(=O)Cn1nc(-c2ccccc2)c2ccccc21 [Compound I-73]	> 80 µM					
COCCn1nc(-c2ccccc2)c2ccccc21 [Compound 49835825]			> 26 µM	> 99%	70%	> 26 µM
CCOC(=O)Cn1nc(-c2ccccc2)c2ccccc21 [Compound 13330959]			> 26 µM	99%	20%	> 26 µM
COC(=O)Cn1nc(-c2cc(F)ccc2F)c2ccccc21 [Compound I-129]	0.15 µM	133				
Cc1nc(Cn2nc(-c3ccccc3)c3ccccc32)no1 [Compound I-86]	5 µM	>32				
COC(=O)Cn1nc(-c2cc(OCCCC3CCCCC3)ccc2F)c2ccccc21 [Compound I-100]	0.007 µM	54				
COC(=O)Cn1nc(-c2cccc(OCc3ccccc3)c2C)c2ccccc21 [Compound I-133]	0.4 µM	30				
c1ccc(-c2nn(Cc3ccccn3)c3ccccc23)cc1 [Compound I-114]	> 120 µM					
COC(=O)Cn1nc(-c2cccc(C(F)(F)F)c2)c2ccccc21 [Compound I-72]	0.04 µM	200				
Cc1cccc2c(-c3cc(OCCCC4CCCCC4)ccc3F)nn(Cc3nnn(C)n3)c12 [Compound I-103]	0.007 µM	71				
COC(=O)Cn1nc(-c2c(C)cccc2C)c2ccccc21 [Compound I-127]	> 32 µM					
c1ccc(-c2nn(Cc3ncon3)c3ccccc23)cc1 [Compound I-85]	2 µM	40				
COC(=O)Cn1nc(-c2cccc(OCCC34CC5CC(CC(C5)C3)C4)c2)c2ccccc21 [Compound I-80]	0.0125 µM	20				
Cc1cccc2c(-c3cc(C(F)(F)F)ccc3F)nn(Cc3cnccn3)c12 [Compound I-126]	0.094 µM	320				
COC(=O)Cn1nc(-c2cc(OCc3ccccc3)ccc2C)c2ccccc21 [Compound I-135]	0.8 µM	3.75				
Cn1nncc1Cn1nc(-c2ccccc2)c2ccccc21 [Compound I-95]	> 20 µM					
COC(=O)Cn1nc(C)c2ccccc21 [Compound 46856254]			21.3 ± 8.1 µM	42%	3.0%	
COC(=O)Cn1nc(-c2cccs2)c2ccccc21 [Compound I-76]	1.25 µM	32				
COC(=O)Cn1nc(-c2c(F)cccc2F)c2ccccc21 [Compound I-128]	0.5 µM	32				
N#Cc1ncccc1-n1nc(-c2ccccc2)c2ccccc21 [Compound I-112]	> 120 µM					
COC(=O)Cn1nc(-c2ccccc2)c2c(C(F)(F)F)cccc21 [Compound I-89]	10 µM	3.75				
Fc1ccc(C(F)(F)F)cc1-c1nn(Cc2cnccn2)c2ccccc12 [Compound I-125]	0.059 µM	340				
c1ccc(-c2nn(Cc3c[nH]nn3)c3ccccc23)cc1 [Compound I-93]	25 µM	>6				
COC(=O)Cn1nc(-c2cc(C(F)(F)F)ccc2F)c2ccccc21 [Compound I-88]	0.025 µM	200				
